One compound from patent US9999603B2, “Compositions and methods including leelamine and arachidonyl trifluoromethyl ketone relating to treatment of cancer” (The Penn State Research Foundation, priority 2013, dated 2018) can be followed below.

Holding throughout (assay type): cell-based, human
The subject of one assay is UACC 903 melanoma cells. Description: MTS cell viability assay, UACC 903 melanoma cells. The conditions noted are these: free drug in DMSO, 24 hours treatment, read-out: half-maximal inhibitory concentration (IC50), cell viability. How it is done: (§1) Human fibroblast FF2441 cells and metastatic melanoma cell lines UACC 903 and 1205 Lu were maintained in DMEM (Invitrogen), supplemented with 10% FBS (Hyclone). Cell lines were maintained in a 37° C. humidified 5% CO2 atmosphere incubator and periodically monitored for phenotypic and genotypic characteristics, and for tumorigenic potential.
(§2) Viability of fibroblast and melanoma cells (UACC 903 and 1205 Lu) following treatment with ATK, leelamine, nanolipoATK, and nanolipoATK-999 was measured by MTS assay (Promega, Madison, Wis.). Briefly, 5×10^3 melanoma or fibroblast (FF2441) cells were plated per well in 100 μL of media and grown in 96-well plates for 48 hours. Cells were then treated with ATK alone, leelamine alone, nanolipoATK, nanolipolee, or nanoleelATK-999 for 24 hours before measuring cell viability.
(§3) IC50 values were calculated using Prism 4.0 GraphPad Software. Calculsyn software was used to evaluate synergy.
(§4) The melanoma cell lines UACC 903 and 1205 Lu, and normal human fibroblast cells FF2441, were treated with 1 μM, 1.5 μM, 2 μM, 2.5 μM, 3 μM, 3.5 μM, 4 μM, 4.5 μM, or 5 μM leelamine in DMSO. […] IC50 values were calculated using GraphPad Prism software.
(§5) The melanoma cell lines UACC 903 and 1205 Lu were treated with 15 μM, 20 μM, 25 μM, 30 μM, 35 μM, 40 μM, 45 μM, 50 μM, or 55 μM ATK in DMSO. […] IC50 values were calculated using GraphPad Prism software.

Another assay deals with 1205 Lu melanoma cells. Description: MTS cell viability assay, 1205 Lu melanoma cells. The conditions noted are these: free drug in DMSO, 24 hours treatment, read-out: half-maximal inhibitory concentration (IC50), cell viability. How it is done:
as §1, §2, §3, §4, §5

For assay [1], the system named is fibroblast cell line FF2441. Description: MTS cell viability assay, normal fibroblasts FF2441. Conditions: 1-5 μM leelamine in DMSO, 24 hours. Here is the method:
as §1, §2
The melanoma cell lines UACC 903 and 1205 Lu, and normal human fibroblast cells FF2441, were treated with 1 μM, 1.5 μM, 2 μM, 2.5 μM, 3 μM, 3.5 μM, 4 μM, 4.5 μM, or 5 μM leelamine in DMSO. Cells were maintained in DMEM supplemented with 10% FBS and L-glutamine. After 24 hours of treatment, an MTS assay was performed to determine the fractional cell viability relative to the DMSO control. IC50 values were calculated using GraphPad Prism software.

pIC50: −log10 of the molar value.

Take `CC(C)c1ccc2c(c1)CC[C@H]1[C@](C)(CN)CCC[C@]21C` [leelamine, (1R,4aS,10aR)-1,2,3,4,4a,9,10,10a-octahydro-1-,4a-dimethyl-7-(1-methylethyl)-1-phenanthrenemethanamine]: the pIC50 with UACC 903 melanoma cells is 5.55; with 1205 Lu melanoma cells, 5.42. For the same compound, the “killing of normal fibroblast cells” value in assay [1] was “did not kill”.
